{"source": "patent US20240018470A1", "about": "“METHOD OF MANIPULATING PLURIPOTENCY IN CELLS” (YALE UNIVERSITY, priority 2022, published 2024)", "key": {"Xenopus embryos": {"test_system": "Xenopus embryos", "assay": "Gastrulation scoring (incomplete blastopore closure) in treated or kcnh6-depleted embryos", "format": "in vivo, Xenopus tropicalis", "conditions": "kcnh6 depletion, injected at one-cell stage", "procedure": "All injections of Xenopus embryos were performed at the one-cell stage using a fine glass needle and Picospritzer system. A kcnh6 translation blocking (kcnh6 MO, 5′-[…]-3′, SEQ ID NO:1) and a scrambled morpholino oligonucleotide were obtained from Gene Tools LLC and injected at 10 ng to deplete kcnh6 or as a control, respectively. CRISPR sgRNAs for kcnh6 targeted either exon 3 or exon 4 based on the v7.1 gene model of the X. tropicalis genome (CRex3: 5′-[…]-3′, SEQ ID NO:2 and CRex4: 5′-[…]-3′, SEQ ID NO:3). CRISPR sgRNAs for cacna1c (5′-[…]-3′, SEQ ID NO:4) and cacna1g (5′-[…]-3′, SEQ ID NO:5) were designed from the v7.1 model of the Xenopus tropicalis genome. For F0 CRISPR knockdown, embryos were injected with 1.5 ng Cas9 Protein (PNA-Bio) and 400 pg of targeting sgRNA and raised to desired stages. […] Full length human KCNH6 (NM 030779.3; cloned in pCS107), GCaMP6 (subcloned in pCSDest) and mCherry cDNAs (Addgene #34935; in pCS2+), were used to generate capped mRNAs in vitro by first linearizing with appropriate restriction enzymes and then transcribing with the mMessage machine kit (Ambion). mRNAs were injected at 3 pg (human KCNH6), 150 pg (GCaMP6) and 150 pg (mCherry) per embryo. Embryos were raised at 21° C. to allow time for sufficient expression levels at blastula/gastrula stages.\nNormal embryonic medium is 1/9× modified Ringer's (MR) containing 11 mM NaCl, 0.2 mM KCl, 0.2 mM CaCl2), 0.1 mM Mg2Cl and 0.55 mM HEPES. To allow Ergtoxin to penetrate the embryos, the present study manually removed the vitelline envelope of stage 8 embryos and incubated embryos in 1/9×MR containing 50 nM Ergtoxin (Alomone STE-450) until stage 12. Embryos were then transferred back into 1/9×MR lacking Ergtoxin to develop until stage 45 in order to score organ situs. Barium chloride was applied into the medium at 20 mM and embryos were thoroughly rinsed in 1/9×MR after each incubation period for further development in Ba2+-free medium. For extracellular K^+ manipulations, the KCl concentration in 1/9×MR was modified from 0.2 mM (normal) to 20 mM (high) or 0 mM (low). The ionophore valinomycin (ACROS) and L-type VGCC blocker Nifedipine (ACROS) were diluted in DMSO as stock solutions and applied to embryos in 1/9×MR at 2 nM and 10 μM respectively. Treatments performed during gastrulation were applied from stage 8 through stage 12, and embryos were then rinsed thoroughly and returned into 1/9×MR. For rapamycin, the present study created a standard stock solution of 50 mg/ml in DMSO. The stock solution was diluted 1:2500 in the appropriate embryonic media (final 20 μg/ml). Embryos were treated at stage 7 and then fixed at stage 11 for in situ hybridization.\nIn experiments where embryos were evaluated for phenotypes and scored (gastrulation, left-right patterning, in situ hybridizations) the present study carried out three to five biological replicates and Fisher's exact test to evaluate statistical significance. The animal cap experiment was performed twice with a total score of four to eight animal caps per experiment. For the calcium transient analyses, data was collected from three to five embryos in each experiment in three independent experiments, and statistical analyses on GCaMP/mCherry fluorescence intensity as well as Ca^2+ transient area were performed using student's t-test. For whole cell electrophysiological recordings, three to five embryos (two cells each) were examined for their membrane potential and statistical significance was tested by student's t-test. Graphs were designed using GraphPad Prism software. Models were created with BioRender.com."}, "[1]": {"test_system": "animal pole cells (prospective ectoderm)", "assay": "Intracellular Vm recordings in animal pole cells", "format": "in vivo, Xenopus tropicalis", "conditions": "stage 10 (gastrulation onset), animal pole, MO injected embryos", "source_text": "For recordings, devitellinized, stage 10 kcnh6 or control MO injected embryos were mounted into non-toxic clay with their animal pole exposed and covered with 1/9×MR. To investigate the resting potential, animal pole cells were impaled with a high-impedance (˜70 Me), sharp microelectrode filled with 3 M KCl for intracellular recordings. The recordings were made using an Axon 200B amplifier and digitized using a Digidata 1320 digitizer. Jclamp software for Windows was used in current clamp mode. All electrodes were zeroed just before entry into the cells.\nFor the series of intracellular recordings in high K^+ and choline treated embryos, stage 8-9 embryos were impaled similarly with an electrode of […]. These recordings were made using a HEKA EPC10 amplifier. The present study used HEKA PatchMaster v2x67 software for Windows. […]\nIn experiments where embryos were evaluated for phenotypes and scored (gastrulation, left-right patterning, in situ hybridizations) the present study carried out three to five biological replicates and Fisher's exact test to evaluate statistical significance. […] For the calcium transient analyses, data was collected from three to five embryos in each experiment in three independent experiments, and statistical analyses on GCaMP/mCherry fluorescence intensity as well as Ca^2+ transient area were performed using student's t-test. […]"}}}
{"substance": "kcnh6 MO: kcnh6 translation blocking morpholino oligonucleotide, 5′-GGTCCTCGAAGTTTAGGATAAACAT-3′, SEQ ID NO:1 (all phosphorodiamidate morpholino (PMO))", "values": [{"measurement": "inability to complete gastrulation", "setting": "Xenopus embryos", "result": "31±3", "unit": "%"}, {"measurement": "Vm", "setting": "[1]", "result": "−21.8±4.6", "unit": "mV"}]}
